Some test systems named below: MOLT-4 leukemia; A549 NSCLC; OVCAR-5 ovarian; OVCAR-3 ovarian; 786-0 renal; M14 melanoma; T-47D breast; RPMI-8226 leukemia; HCT-116 colon; A498 renal.
Test in all cases: inhibition of tumour cell growth, NCI panel, 48 h

Structures are written as SMILES.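 Where inhibition never reached the appropriate level, the endpoint shown equals the highest concentration tested. Otherwise, values were interpolated linearly from a five-concentration, 48-hour dose response in 96-well plates. GI50 = concentration required for 50% inhibition of growth. At the TGI there is no net growth.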

As to `NC(=S)N/N=C/c1ccc(OC(=O)COc2ccccc2)cn1`, the GI50 in the assay on MOLT-4 leukemia was 2.53 µM; in the assay on A549 NSCLC, 30 µM; in the assay with OVCAR-5 ovarian, 49.7 µM; with OVCAR-3 ovarian, 2.17 µM; in the assay with 786-0 renal, 3.89 µM; with M14 melanoma, 3.57 µM. In addition, the GI50 in the assay on T-47D breast is 7.45 µM; in the assay with RPMI-8226 leukemia, 7.47 µM; in the assay with HCT-116 colon, 5.98 µM; with A498 renal, 14.8 µM. For the same molecule, the TGI in the assay with MOLT-4 leukemia was > 100 µM; in the assay on A549 NSCLC, > 100 µM; with OVCAR-5 ovarian, > 100 µM; in the assay with OVCAR-3 ovarian it was > 100 µM; in the assay with 786-0 renal, > 100 µM; in the assay on M14 melanoma, 12.1 µM. Besides, the TGI is > 100 µM in the assay with T-47D breast, > 100 µM in the assay on RPMI-8226 leukemia, > 100 µM with HCT-116 colon and 81 µM with A498 renal.

As to `Cc1[nH]c(=O)nc(N/N=C/c2ccc(Cl)cc2)c1C(=O)Nc1ccc(Cl)cc1`, the TGI with MOLT-4 leukemia is > 91.9 µM; in the assay on A549 NSCLC, > 63.1 µM; in the assay on OVCAR-5 ovarian, > 100 µM; with OVCAR-3 ovarian it was 35.6 µM; in the assay on 786-0 renal it was 47.6 µM; in the assay with M14 melanoma it was 40.3 µM. Moreover, the TGI is > 85.4 µM with T-47D breast, > 80.2 µM in the assay with RPMI-8226 leukemia, 17.1 µM in the assay with HCT-116 colon and 57.2 µM in the assay with A498 renal.

As for `CC(=O)OC1CC2(O)C(CCC3(C)C(c4ccc(=O)oc4)CCC32O)C2(C)CCC(OC3OC(CO)C(O)C(O)C3O)C=C12` (stereo unspecified), the GI50 is < 0.01 µM with MOLT-4 leukemia; < 0.01 µM in the assay on A549 NSCLC; 0.044 µM in the assay with OVCAR-5 ovarian; 0.0282 µM in the assay with OVCAR-3 ovarian; 0.0129 µM in the assay with 786-0 renal; 0.0356 µM with M14 melanoma. In addition, the GI50 with T-47D breast is 0.0402 µM; with RPMI-8226 leukemia, 0.0309 µM; in the assay with HCT-116 colon, 0.0111 µM; in the assay on A498 renal, 0.0339 µM. Also, the TGI in the assay with MOLT-4 leukemia is 0.015 µM; in the assay with A549 NSCLC, 0.0278 µM; with OVCAR-5 ovarian, 0.168 µM; in the assay with OVCAR-3 ovarian it was 0.0949 µM; in the assay on 786-0 renal it was 0.03 µM; in the assay with M14 melanoma, 0.129 µM. Further, the TGI amounted to 0.837 µM in the assay on T-47D breast, 0.162 µM in the assay with RPMI-8226 leukemia, 0.105 µM in the assay with HCT-116 colon and 0.287 µM in the assay with A498 renal.

With `Cc1cccc2c(N=Nc3ccccc3[N+](=O)[O-])c(O)[nH]c12`, the TGI in the assay with MOLT-4 leukemia was > 100 µM; in the assay on A549 NSCLC, > 61.7 µM; in the assay with OVCAR-5 ovarian, > 69.2 µM; in the assay with OVCAR-3 ovarian, 30 µM; with 786-0 renal it was 11.8 µM; with M14 melanoma, > 100 µM. Further, the TGI in the assay on T-47D breast was 21.9 µM; in the assay with RPMI-8226 leukemia it was > 89.3 µM; in the assay on HCT-116 colon it was 34 µM; with A498 renal, > 38.3 µM.

Consider `O=C(Nc1nc(-c2ccccc2)cs1)c1cc(O)c(O)c(O)c1`, for which the GI50 was 1.57 µM with MOLT-4 leukemia; 5.62 µM in the assay on A549 NSCLC; 18.2 µM in the assay with OVCAR-5 ovarian; 3.39 µM in the assay on OVCAR-3 ovarian; 3.38 µM with 786-0 renal; 7.9 µM in the assay on M14 melanoma. The GI50 was 2.34 µM with T-47D breast, 2.99 µM in the assay with RPMI-8226 leukemia, 2.97 µM with HCT-116 colon and 5.41 µM with A498 renal. For the same molecule, the TGI was 19.4 µM in the assay with MOLT-4 leukemia; 51.4 µM with A549 NSCLC; 47.7 µM in the assay with OVCAR-5 ovarian; 13.6 µM with OVCAR-3 ovarian; 10.6 µM in the assay on 786-0 renal; 44 µM in the assay on M14 melanoma. In addition, the TGI turned out to be 22.8 µM in the assay with T-47D breast, 22.1 µM with RPMI-8226 leukemia, 16.5 µM in the assay on HCT-116 colon and 28.2 µM in the assay with A498 renal.

Regarding `Cc1ccc(S(=O)(=O)NNC(C[N+](=O)[O-])c2ccccc2)cc1` (stereo unspecified), the TGI in the assay with MOLT-4 leukemia is > 100 µM; in the assay on A549 NSCLC it was > 100 µM; with OVCAR-5 ovarian, > 100 µM; with OVCAR-3 ovarian it was 79.4 µM; with 786-0 renal it was > 100 µM; with M14 melanoma, > 100 µM. For the same molecule, the TGI with T-47D breast is 57.5 µM; in the assay on RPMI-8226 leukemia, > 100 µM; in the assay with HCT-116 colon it was > 100 µM; in the assay with A498 renal it was 30.8 µM.

As to `O=C1c2ccccc2C(=O)c2sc(Nc3ccc(Cl)cc3)nc21`, the TGI came out at 3.75 µM in the assay on MOLT-4 leukemia; 24.6 µM with A549 NSCLC; 7.37 µM with OVCAR-5 ovarian; 2.74 µM with OVCAR-3 ovarian; 3.93 µM in the assay on 786-0 renal; 3.96 µM with M14 melanoma. Besides, the TGI in the assay on T-47D breast is 7.52 µM; in the assay with RPMI-8226 leukemia it was 4.73 µM; in the assay on HCT-116 colon, 3.4 µM; with A498 renal, 29.7 µM. Further, in the assay with T-47D breast, the GI50 was 1.8 µM.

`N#CSCC1CC(O)(c2ccccc2)CC(c2ccc(Cl)cc2)O1` (stereo unspecified): the GI50 with MOLT-4 leukemia was 1.29 µM; with A549 NSCLC it was 3.74 µM; with OVCAR-5 ovarian, 12.8 µM; in the assay on OVCAR-3 ovarian, 1.72 µM; with 786-0 renal, 2.14 µM; in the assay with M14 melanoma, 1.75 µM. Further, the GI50 with T-47D breast is 1.7 µM; in the assay with RPMI-8226 leukemia, 1.26 µM; with HCT-116 colon it was 1.62 µM; in the assay with A498 renal, 1.88 µM. Also, the TGI in the assay on MOLT-4 leukemia is 5 µM; in the assay with A549 NSCLC, 17.3 µM; with OVCAR-5 ovarian, 26 µM; with OVCAR-3 ovarian, 3.14 µM; with 786-0 renal, 4.66 µM; in the assay with M14 melanoma, 3.28 µM. The TGI in the assay on T-47D breast was found to be 6.27 µM; in the assay with RPMI-8226 leukemia it was 5.39 µM; in the assay with HCT-116 colon, 3.1 µM; in the assay on A498 renal it was 8.63 µM.

`COc1ccc2c(c1)C(=O)c1c-2n(CCCN=[N+]=[N-])c(=O)c2cc(N)ccc12`: the GI50 in the assay with MOLT-4 leukemia, with A549 NSCLC, in the assay with OVCAR-5 ovarian, with OVCAR-3 ovarian, in the assay on 786-0 renal and in the assay on M14 melanoma was > 100 µM throughout. Moreover, the GI50 with T-47D breast, in the assay on RPMI-8226 leukemia, with HCT-116 colon and with A498 renal was > 100 µM throughout. For the same molecule, the TGI in the assay on MOLT-4 leukemia, with A549 NSCLC, in the assay with OVCAR-5 ovarian, in the assay with OVCAR-3 ovarian, in the assay on 786-0 renal and in the assay on M14 melanoma was > 100 µM in each case. Besides, the TGI with T-47D breast, with RPMI-8226 leukemia, in the assay with HCT-116 colon and in the assay on A498 renal was > 100 µM throughout.

(Values after PubChem BioAssay (NCI).)
